Assay results from patent US11589603B2, “Powdered nutritional product containing branched-chain amino acids and a sugar alcohol” (Abbott Laboratories, priority 2015, dated 2023).

Assays:
Assay type in all cases: physicochemical
[1] = Example 3: aqueous dissolution of powdered branched-chain amino acid blend (first material) with varying myo-inositol, LC/UV of filtrate; conditions: for Dissolved amino acid (g per 16 oz.): 7.00 g BCAA blend, water 21° C., 400 rpm
Description: (§1) Example 3 evaluates the effect that varying the myo-inositol concentration has on the aqueous dissolution of branched-chain amino acids. Two branched-chain amino acid materials were tested. The first material tested was 7.00 grams of a powdered branched-chain amino acid blend comprising 50 wt. % leucine, 25 wt. % isoleucine, and 25 wt. % valine. The second material tested was 3.5 grams of powdered leucine. Each material was tested with varying levels of powdered myo-inositol, expressed as a percentage of 17.6 grams (e.g., a serving of powdered nutritional product). For example, 1% myo-inositol is 0.176 grams, 2% myo-inositol is 0.352 grams, and so forth. The branched-chain amino acid material and the specified amount of myo-inositol were added to 16 fluid ounces of Milli-Q Plus water at 21° C. and stirred at 400 rpm. After 30 seconds and 60 seconds of stirring, an aliquot was obtained and filtered through a 0.45 μm PTFE membrane (Pall Life Sciences, Acrodisc CR 25, P/N 4501), and the filtrate of the first material was tested for valine, isoleucine, and leucine using the LC/UV method described below, while the filtrate of the second material was tested for leucine using the same LC/UV method. The test results for the first material tested are shown in Table 3, while the test results for the second material tested are shown in Table 4.
(§2) The LC/UV system used to perform the tests comprised the following: 1) Column: YMC ODS-AQ, 4.6 x 250 mm, 5 μm, Waters P/N AQ12S052546WT; 2) Mobile Phase: Milli-Q Plus water; 3) Flow Rate: 0.4 mL/minute; 4) Temperature: 40° C.; 5) Detection: UV at 192 nm; 6) Injection: 2 μL of filtrate; and 7) Run Time: 20 minutes.

[2] = Example 3: aqueous dissolution of powdered leucine only (second material) with varying myo-inositol, LC/UV of filtrate; conditions: for Dissolved Leucine (g per 16 oz.): 3.5 g leucine only, water 21° C., 400 rpm
Description: as §1, §2

[3] = Example 5: effect of inositol isomers on dissolution of L-leucine, LC/UV of filtrate; conditions: 3.50 g L-leucine without inositol isomer (None, n = 3), water 21° C., 400 rpm
Description: The LC/UV system used to perform the tests comprised the following: 1) Column: YMC ODS-AQ, 4.6 x 250 mm, 5 μm, Waters […]; 2) Mobile Phase: Milli-Q Plus water; 3) Flow Rate: 0.4 mL/minute; 4) Temperature: 40° C.; 5) Detection: UV at 192 nm; 6) Injection: 2 μL of filtrate; and 7) Run Time: 20 minutes.

[4] = Example 4: aqueous dissolution of branched-chain amino acids in a powdered nutritional product with varying myo-inositol, LC/UV of filtrate; conditions: 17.6 g powdered nutritional product, water 21° C., 400 rpm
Description: as §2
Example 4 evaluates the effect that myo-inositol concentration has on the aqueous dissolution of branched-chain amino acids (valine, isoleucine, and leucine) in a powdered nutritional product. One serving (17.6 grams) of the powdered nutritional product contains 7.00 grams of a branched-chain amino acid blend comprising 50 wt. % leucine, 25 wt. % isoleucine, and 25 wt. % valine. A serving of the powdered nutritional product with a specified amount of myo-inositol was added to 16 fluid ounces of Milli-Q Plus water at 21° C. and stirred at 400 rpm. At each specified time point, an aliquot was obtained and filtered through a 0.45 μm PTFE membrane (Pall Life Sciences, Acrodisc CR 25, P/N 4501), and the filtrate was tested for valine, isoleucine, and leucine using the LC/UV method as described in Example 3.

[5] = myo-inositol 0% of 17.6 g, 30 seconds
[6] = myo-inositol 0% of 17.6 g, 60 seconds
[7] = myo-inositol 1% of 17.6 g, 30 seconds
[8] = myo-inositol 1% of 17.6 g, 60 seconds
[9] = myo-inositol 2% of 17.6 g, 30 seconds
[10] = myo-inositol 2% of 17.6 g, 60 seconds
[11] = myo-inositol 4% of 17.6 g, 30 seconds
[12] = myo-inositol 4% of 17.6 g, 60 seconds
[13] = myo-inositol 8% of 17.6 g, 30 seconds
[14] = myo-inositol 8% of 17.6 g, 60 seconds

## CC(C)C[C@H](N)C(=O)O [Leucine, L-Leucine]
[1]; [5]
  Dissolved amino acid (g per 16 oz.): 0.596 g per 16 oz.
[1]; [6]
  Dissolved amino acid (g per 16 oz.): 1.21 g per 16 oz.
[1]; [7]
  Dissolved amino acid (g per 16 oz.): 0.860 g per 16 oz.
[1]; [8]
  Dissolved amino acid (g per 16 oz.): 1.51 g per 16 oz.
[1]; [9]
  Dissolved amino acid (g per 16 oz.): 0.747 g per 16 oz.
[1]; [10]
  Dissolved amino acid (g per 16 oz.): 1.53 g per 16 oz.
[1]; [11]
  Dissolved amino acid (g per 16 oz.): 0.729 g per 16 oz.
[1]; [12]
  Dissolved amino acid (g per 16 oz.): 1.36 g per 16 oz.
[1]; [13]
  Dissolved amino acid (g per 16 oz.): 1.09 g per 16 oz.
[1]; [14]
  Dissolved amino acid (g per 16 oz.): 1.94 g per 16 oz.
[1]; 30 second time point, all myo-inositol concentrations
  dissolution rate of leucine in first material compared with second material (FIG. 4): faster
[2]; [5]
  Dissolved Leucine (g per 16 oz.): 0.353 g per 16 oz.
[2]; [6]
  Dissolved Leucine (g per 16 oz.): 0.703 g per 16 oz.
[2]; [7]
  Dissolved Leucine (g per 16 oz.): 0.480 g per 16 oz.
[2]; [8]
  Dissolved Leucine (g per 16 oz.): 1.04 g per 16 oz.
[2]; [9]
  Dissolved Leucine (g per 16 oz.): 0.616 g per 16 oz.
[2]; [10]
  Dissolved Leucine (g per 16 oz.): 1.33 g per 16 oz.
[2]; [11]
  Dissolved Leucine (g per 16 oz.): 0.549 g per 16 oz.
[2]; [12]
  Dissolved Leucine (g per 16 oz.): 1.09 g per 16 oz.
[2]; [13]
  Dissolved Leucine (g per 16 oz.): 0.844 g per 16 oz.
[2]; [14]
  Dissolved Leucine (g per 16 oz.): 1.62 g per 16 oz.
[2]; second material, myo-inositol 0%, 1%, 2%, 30-second plot
  slope of plot of leucine dissolution vs myo-inositol on a molar basis (FIG. 5): 1.0816
[3]; 30 seconds
  Leu dissolved at 30 seconds (g/16 oz.): 0.422 ± 0.018 g/16 oz.
[3]; 60 seconds
  Leu dissolved at 60 seconds (% of total Leu): 23.7 ± 1.0 % of total Leu
  Leu dissolved at 60 seconds (g/16 oz.): 0.828 ± 0.036 g/16 oz.
[4]; myo-inositol 0%, 30 seconds
  Dissolved amino acid (g per 16 oz.): 1.73 g per 16 oz.
[4]; myo-inositol 0%, 60 seconds
  Dissolved amino acid (g per 16 oz.): 2.42 g per 16 oz.
[4]; myo-inositol 0%, 90 seconds
  Dissolved amino acid (g per 16 oz.): 2.67 g per 16 oz.
[4]; myo-inositol 0%, 240 seconds
  Dissolved amino acid (g per 16 oz.): 3.22 g per 16 oz.
[4]; myo-inositol 0%, 600 seconds
  Dissolved amino acid (g per 16 oz.): 3.44 g per 16 oz.
[4]; myo-inositol 1%, 30 seconds
  Dissolved amino acid (g per 16 oz.): 1.95 g per 16 oz.
[4]; myo-inositol 1%, 60 seconds
  Dissolved amino acid (g per 16 oz.): 2.51 g per 16 oz.
[4]; myo-inositol 1%, 90 seconds
  Dissolved amino acid (g per 16 oz.): 2.76 g per 16 oz.
[4]; myo-inositol 1%, 240 seconds
  Dissolved amino acid (g per 16 oz.): 3.27 g per 16 oz.
[4]; myo-inositol 1%, 600 seconds
  Dissolved amino acid (g per 16 oz.): 3.40 g per 16 oz.
[4]; myo-inositol 2%, 30 seconds
  Dissolved amino acid (g per 16 oz.): 1.91 g per 16 oz.
[4]; myo-inositol 2%, 60 seconds
  Dissolved amino acid (g per 16 oz.): 2.36 g per 16 oz.
[4]; myo-inositol 2%, 90 seconds
  Dissolved amino acid (g per 16 oz.): 2.67 g per 16 oz.
[4]; myo-inositol 2%, 240 seconds
  Dissolved amino acid (g per 16 oz.): 3.25 g per 16 oz.
[4]; myo-inositol 2%, 600 seconds
  Dissolved amino acid (g per 16 oz.): 3.45 g per 16 oz.
[4]; myo-inositol 4%, 30 seconds
  Dissolved amino acid (g per 16 oz.): 2.02 g per 16 oz.
[4]; myo-inositol 4%, 60 seconds
  Dissolved amino acid (g per 16 oz.): 2.47 g per 16 oz.
[4]; myo-inositol 4%, 90 seconds
  Dissolved amino acid (g per 16 oz.): 2.72 g per 16 oz.
[4]; myo-inositol 4%, 240 seconds
  Dissolved amino acid (g per 16 oz.): 3.23 g per 16 oz.
[4]; myo-inositol 4%, 600 seconds
  Dissolved amino acid (g per 16 oz.): 3.38 g per 16 oz.
[4]; myo-inositol 8%, 30 seconds
  Dissolved amino acid (g per 16 oz.): 1.94 g per 16 oz.
[4]; myo-inositol 8%, 60 seconds
  Dissolved amino acid (g per 16 oz.): 2.45 g per 16 oz.
[4]; myo-inositol 8%, 90 seconds
  Dissolved amino acid (g per 16 oz.): 2.66 g per 16 oz.
[4]; myo-inositol 8%, 240 seconds
  Dissolved amino acid (g per 16 oz.): 3.30 g per 16 oz.
[4]; myo-inositol 8%, 600 seconds
  Dissolved amino acid (g per 16 oz.): 3.48 g per 16 oz.
